Reference: ChEMBL document CHEMBL5034018, “LXR-Mediated Regulation of Marine-Derived Piericidins Aggravates High-Cholesterol Diet-Induced Cholesterol Metabolism Disorder in Mice” (J Med Chem, 2021)
Calls of active or inactive are those of the source. The rule behind the calls is not given here.

Tests used:
Mus musculus [1] = assay: Induction of HCD-induced cholestasis in C57BL/6 mouse assessed as fold increase in plasma LDL-cholesterol level at 0.8 mg/kg, ip; assay type: functional
Mus musculus [2] = assay: Induction of HCD-induced cholestasis in C57BL/6 mouse assessed as fold increase in liver LDL-cholesterol level at 0.8 mg/kg, ip; assay type: organism-based; conditions: in vivo
HepG2 [3] = assay: Induction of mitochondrial dysfunction in human HepG2 cells assessed as decrease in ILbeta level at 5 to 10 uM after 48 hrs; assay type: cell-based; design: scale not given: the % may be the effect or the level left; conditions: hepg2, 48 h, dose 5-10 µM
[4] = Effect on bile acid homeostasis in HCD-fed C57BL/6 mouse assessed as down regulation of Ost-alpha mRNA expression by RT-qPCR analysis; assay type: functional
[5] = Drug metabolism in mouse liver assessed as PA formation at 10 mg/kg, po after 30 mins by LC-MS/MS analysis; assay type: ADME, organism-based; conditions: in vivo, 0.5 h
HepG2 [6] = assay: Down regulation of ABCB1 protein level in human HepG2 cells at 1 to 5 uM by Western blot analysis; assay type: functional, cell-based; conditions: dose 1-5 µM
[7] = Toxicity in renal carcinoma xenografted C57BL/6 mouse assessed as effect on visceral coefficient of lung at 0.8 mg/kg, ip; assay type: organism-based; conditions: in vivo
[8] = Hepatotoxicity in renal carcinoma xenografted C57BL/6 mouse assessed as effect on body weight at 0.8 mg/kg, ip; assay type: toxicity, organism-based; conditions: in vivo
[9] = Effect on bile acid homeostasis in HCD-fed C57BL/6 mouse assessed as reduction in Ntcp-mRNA expression by RT-qPCR analysis; assay type: functional; design: scale not given: the % may be the effect or the level left
[10] = Induction of FXR mRNA level in human HepG2 cells assessed as fold increase in FXR expression at 1 uM by RT-qPCR analysis; assay type: functional
[11] = Toxicity in mouse assessed as death at 10 mg/kg, po after 45 mins; assay type: organism-based; conditions: in vivo, 0.75 h
[12] = Drug metabolism in mouse liver assessed as PA formation at 10 mg/kg, po after 180 mins by LC-MS/MS analysis; assay type: ADME, organism-based; conditions: in vivo, 3 h
HepG2 [13] = assay: Down regulation of LXRalpha protein level in human HepG2 cells at 1 to 5 uM by Western blot analysis; assay type: functional, cell-based; conditions: dose 1-5 µM
[14] = Effect on bile acid homeostasis in HCD-fed C57BL/6 mouse assessed as fold increase in Mrp3 mRNA expression by RT-qPCR analysis; assay type: functional
[15] = Inhibition of FXR protein expression level in HCD-fed C57BL/6 mouse at 0.8 mg/kg, ip; assay type: functional; conditions: C57BL/6, ip
HepG2 [16] = assay: Induction of calcium signal in human HepG2 cells at 5 uM by Fluo-4AM dye based fluorescence assay; assay type: functional, cell-based
[17] = Induction of LDLR protein expression level in chow diet fed C57BL/6 mouse at 0.8 mg/kg, ip; assay type: functional
Mus musculus [18] = assay: Induction of histopathological changes in HCD-fed C57BL/6 mouse assessed as white discoloration of liver at 0.8 mg/kg, ip; assay type: organism-based; conditions: in vivo
[19] = Induction of SHP mRNA level in human HepG2 cells assessed as fold increase in SHP expression at 1 uM by RT-qPCR analysis; assay type: functional
[20] = Effect on bile acid homeostasis in HCD-fed C57BL/6 mouse assessed as decrease in FXR mRNA expression by RT-qPCR analysis; assay type: functional; design: scale not given: the % may be the effect or the level left
[21] = Induction of Cholesterol accumulation in human HepG2 cells assessed as fold increase in LDL-cholesterol level at 5 uM after 48 hrs; assay type: functional
[22] = Hepatotoxicity in renal carcinoma xenografted C57BL/6 mouse assessed as fold increase in plasma AST at 0.8 mg/kg, ip; assay type: toxicity, organism-based; conditions: in vivo
[23] = Down regulation of SHP mRNA level in human HepG2 cells at 5 uM by RT-qPCR analysis; assay type: functional
Mus musculus [24] = assay: Induction of histopathological changes in HCD-fed C57BL/6 mouse assessed as striking subcapsular foci at 0.8 mg/kg, ip; assay type: organism-based; conditions: in vivo
HepG2 [25] = assay: Effect on LXRalpha mRNA level in human HepG2 cells at 1 to 5 uM by RT-qPCR analysis; assay type: functional, cell-based; conditions: dose 1-5 µM
[26] = Hepatotoxicity in renal carcinoma xenografted C57BL/6 mouse assessed as fold increase in plasma ALT at 0.8 mg/kg, ip; assay type: toxicity, organism-based; conditions: in vivo
[27] = Down regulation of Cyp7a1 mRNA expression level in human HepG2 cells at 5 uM by RT-qPCR analysis; assay type: functional
[28] = Toxicity in renal carcinoma xenografted C57BL/6 mouse assessed as effect on visceral coefficient of kidney at 0.8 mg/kg, ip; assay type: organism-based; conditions: in vivo
[29] = Toxicity in HCD-fed C57BL/6 mouse assessed as body weight loss at 0.8 mg/kg, ip measured on day 28; assay type: organism-based; conditions: in vivo
[30] = Toxicity in renal carcinoma xenografted C57BL/6 mouse assessed as effect on visceral coefficient of heart at 0.8 mg/kg, ip; assay type: organism-based; conditions: in vivo
Mus musculus [31] = assay: Reversal of HCD-induced LXRalpha activation in C57BL/6 mouse assessed as decrease in LXRalpha protein level at 0.8 mg/kg, ip; assay type: functional; design: scale not given: the % may be the effect or the level left
[32] = Hepatotoxicity in renal carcinoma xenografted C57BL/6 mouse assessed as inflammatory infiltration at 0.8 mg/kg, ip by histological analysis; assay type: toxicity, organism-based; conditions: in vivo
[33] = Induction of LDLR protein expression level in HCD-fed C57BL/6 mouse at 0.8 mg/kg, ip; assay type: functional
[34] = Down regulation of FXR mRNA level in human HepG2 cells at 5 uM by RT-qPCR analysis; assay type: functional
[35] = Down regulation of FXR mRNA level in human HepG2 cells at 1 uM by RT-qPCR analysis; assay type: functional
[36] = Down regulation of SHP mRNA level in human HepG2 cells at 1 uM by RT-qPCR analysis; assay type: functional
HepG2 [37] = assay: Induction of mitochondrial dysfunction in human HepG2 cells assessed as decrease in TNFalpha level at 1 uM after 48 hrs; assay type: cell-based; design: scale not given: the % may be the effect or the level left; conditions: hepg2, 48 h
[38] = target: T1, Oxysterols receptor LXR-alpha (Homo sapiens, UniProt Q13133); assay: Binding affinity to full-length human LXRalpha by surface plasmon resonance assay
T1 sequence (Q13133 whole entry): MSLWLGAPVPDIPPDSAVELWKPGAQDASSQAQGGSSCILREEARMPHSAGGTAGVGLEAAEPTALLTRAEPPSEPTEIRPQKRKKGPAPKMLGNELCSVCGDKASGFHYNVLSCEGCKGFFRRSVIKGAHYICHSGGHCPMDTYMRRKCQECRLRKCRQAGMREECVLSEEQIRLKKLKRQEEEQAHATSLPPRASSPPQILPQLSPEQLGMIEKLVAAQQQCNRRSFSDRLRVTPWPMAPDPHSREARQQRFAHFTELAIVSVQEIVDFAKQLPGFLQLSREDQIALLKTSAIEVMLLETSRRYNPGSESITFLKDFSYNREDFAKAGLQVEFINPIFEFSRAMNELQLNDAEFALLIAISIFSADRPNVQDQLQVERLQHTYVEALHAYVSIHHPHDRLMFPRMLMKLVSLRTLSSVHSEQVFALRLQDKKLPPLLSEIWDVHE

Compound | fold change (FC) (Mus musculus [1]) | fold change (FC) (Mus musculus [2]) | Activity [4] | Activity [7] | Activity [8] | Activity [9] | Activity [11] | inhibition in vivo at 0.8 mg/kg [15] | Activity (HepG2 [16]) | Activity (Mus musculus [18]) | Activity [20] | fold change (FC) [21] | fold change (FC) [22] | Activity [23] | Activity (Mus musculus [24]) | fold change (FC) [26] | Activity [27] | Activity [28] | Activity [29] | Activity [30] | further results
C/C=C(\C)[C@H](O[C@@H]1O[C@H](CO)[C@@H](O)[C@H](O)[C@H]1O)[C@H](C)/C=C(C)/C=C/C/C(C)=C/Cc1nc(OC)c(OC)c(O)c1C | 2.3 | 2.9 | 44% | Non-Toxic | Non-Toxic | 42% | Toxic | 31% | Active | Toxic | 60% | 3.1 | 2.2 | 61% | Toxic | 2.3 | 38% | Non-Toxic | Toxic | Non-Toxic | Activity (HepG2 [3]): 68%; Drug metabolism [5]: 14.87 ng/mL; Activity (HepG2 [6]): Active; fold change (FC) [10]: 3.6; Drug metabolism [12]: Metabolite_Detected; Activity (HepG2 [13]): Active; fold change (FC) [14]: 1.65; fold change (FC) [17]: 1.5; fold change (FC) [19]: 3.6; Activity (HepG2 [25]): inactive; Activity (Mus musculus [31]): 46%; Activity [32]: Toxic; fold change (FC) [33]: 1.6
C/C=C(\C)[C@H](O)[C@H](C)/C=C(C)/C=C/C/C(C)=C/Cc1nc(OC)c(OC)c(O)c1C [PIERICIDIN A] | 2.6 | 2.2 | 10% | Non-Toxic | Non-Toxic | 60% | Non-Toxic | 79% | Active | Toxic | 58% | 2.7 | 1.6 | 30% | Toxic | 2.6 | 26% | Non-Toxic | Toxic | Non-Toxic | Activity [34]: 34%; Activity [35]: 56%; Activity [36]: 55%; Activity (HepG2 [37]): 54%; Activity (Mus musculus [31]): 72%; Activity [32]: Toxic; Kd [38]: 3.24 µM
